Experimental data: PMC9496155, “Amaryllidaceae Alkaloids Decrease the Proliferation, Invasion, and Secretion of Clinically Relevant Cytokines by Cultured Human Colon Cancer Cells” (Biomolecules, 2022)
Where two headings read alike, the source gives them in different places.

Columns and labels:
CoN = assay: MTT viability assay, CoN normal colon epithelial cell line; type: cell-based, human; conditions: 72 h of exposure, mean of six replicates of one experiment, read-out: IC50 Normal Cell Line (N) CoN
Experimental: (§1) HCT-116 (CCL-247), LoVo (CCL-229), DLD-1 (CCL-221), HT-29 (HTB-38) and CoN (CCD-841) human CRC cells were obtained from the ATCC (Manassas, VA, USA). HCT-116 cells were cultured in Dulbecco’s Modified Eagle’s Medium (DMEM; Corning Cellgro, Corning, NY, USA) for the invasion assays or RPMI-1640 medium (Lonza, Westburg, The Netherlands) for all other assays. The LoVo, DLD-1, and HT-29 cell lines were grown in RPMI-1640 for all experiments. Media were supplemented with 10% fetal bovine serum (FBS; Gibco, Waltham, MA, USA or Greiner Bio-One, Vilvoorde, Belgium), 100 U/mL penicillin, and 100 µg/mL streptomycin (Gibco, Waltham, MA). Cells were grown at 37 °C and 5% CO2 in a humidified atmosphere. The CoN cells were cultured in Eagle’s Minimum Essential Medium (Lonza, Westburg, The Netherlands) supplemented with 10% FBS (South America origin, Greiner Bio-One, Vilvoorde, Belgium). HCT-116 p53^-/- cells were obtained from Denis L.J. LaFontaine, Université Libre de Bruxelles, Brussels, Belgium.
(§2) Effects of compounds on viability were assessed by means of 3-(4,5-dimethylthiazol-2-yl)-2,5-diphenyltetrazolium bromide (MTT; Sigma-Aldrich, Diegem, Belgium) colorimetric assay as previously reported. Briefly, cells were seeded in flat-bottom 96-well plates at the appropriate cell density 24 h prior to the exposure or not to the compound of interest. Each compound was first solubilized in dimethylsulfoxide (DMSO) at 10^−2 M concentration and further diluted in a serial manner in the culture medium. Nine concentrations ranging from 10 nM to 100 µM were tested in sextuplicate within the assay. Evaluation of the cell viability was conducted after 72 h of exposure to the compound by means of MTT assay.

LoVo = assay: MTT viability assay, LoVo; type: cell-based, human; conditions: 72 h of exposure, TP53 wild type, mean of six replicates of one experiment, read-out: IC50 Cancer Cell Lines (C) LoVo
Experimental: as §1, §2

HCT-116^+/+ = assay: MTT viability assay, HCT-116+/+; type: cell-based, human; conditions: functional p53, mean of six replicates of one experiment, read-out: IC50 Cancer Cell Lines (C) HCT-116+/+
Experimental: as §1, §2

HCT-116^-/- = assay: MTT viability assay, HCT-116-/- (p53-null); type: cell-based, human; conditions: mean of six replicates of one experiment, read-out: IC50 Cancer Cell Lines (C) HCT-116-/-
Experimental: as §1, §2

HT-29 = assay: MTT viability assay, HT-29; type: cell-based, human; conditions: TP53 mutant, mean of six replicates of one experiment, read-out: IC50 Cancer Cell Lines (C) HT-29
Experimental: as §1, §2

DLD-1 = assay: MTT viability assay, DLD-1; type: cell-based, human; conditions: TP53 mutant, mean of six replicates of one experiment, read-out: IC50 Cancer Cell Lines (C) DLD-1
Experimental: as §1, §2

[1] = system: Cancer Cell Lines (LoVo, HCT-116^+/+, HCT-116^-/-, HT-29, DLD-1); assay: MTT viability assay, mean over the five colon cancer cell lines and ratio to CoN; type: cell-based, human; conditions: for Ratio N/C: IC50 CoN / mean IC50 cancer cells
Experimental: as §1, §2

[2] = system: subpanel of CRC cell lines; conditions: NCI DTD 60 cell line screen; cited from earlier work
[3] = system: HT-29 p53-deficient and HCT-116 p53 wild-type models; set-up: method as in PMID 21220492; conditions: cited from earlier work
HCT-116 cells [4] = assay: Adhesion assay (crystal violet), HCT-116; type: cell-based, human; conditions: 0.08 µM, 15 h, 0.5% FBS, one experiment
Experimental: (§3) To evaluate the effects of the compounds on cell adhesion, 75000 HCT-116 or LoVo cells per well were seeded in 96-well flat-bottom plates in the presence or absence of each compound tested at three concentrations. In the first set of experiments, cells were allowed to adhere for 1, 5, 8, and 24 h and cultured with 10% FBS. Three independent experiments were performed each in sextuplicate to examine the time course of adhesion when grown with 10% FBS and increasing concentrations of each compound. In the second set of experiments cells were allowed to adhere for 15 h in a medium containing only 0.5% FBS to limit the contribution of proliferation to the results.
(§4) At the end of the incubation period, the plate was rinsed with phosphate buffered saline (PBS), fixed with 17.5% of formaldehyde at 4 °C for 15 min, and washed with deionized water twice before staining with 0.1% crystal violet (Sigma-Aldrich, Diegem, Belgium) in a 50:50 methanol/water mixture for 15 min. After extensive washes with water to remove any free crystal violet, the dye within the cells was extracted and solubilized in 100 µL of a 33% acetic acid solution and absorbance was measured at 570 nm (680XR, Bio-Rad Laboratories, Berkeley, CA, USA; reference wavelength 610 nm). The mean absorbance of the untreated control well was set at 100% for comparison. […]

LoVo cells [5] = assay: Adhesion assay (crystal violet), LoVo; type: cell-based, human; conditions: 0.08 µM, 15 h, 0.5% FBS, one experiment
Experimental: as §3, §4

HCT-116 cells [6] = assay: Invasion assay, Matrigel-coated Boyden chambers, HCT-116; type: cell-based, human; conditions: for cell invasion, % of vehicle control: 24 h, corrected for adherent cells
Experimental: Prior to seeding HCT-116 cells in the invasion chambers, the medium was removed and cells were washed twice with phosphate buffered saline and incubated in DMEM lacking FBS for 48 h before seeding at a density of 1 × 10^5 cells/well into the upper portion of Matrigel-coated invasion chambers (Corning Biocoat, Corning, NY, USA), as described previously by our group in [47, 48]. The upper portion of each chamber contained cells suspended in serum-free DMEM containing DMSO vehicle alone or increasing concentrations of the Amaryllidaceae alkaloids NAR, LYC, and HAE. […] The lower portion of each chamber contained DMEM supplemented with 10% FBS. The FBS served as a chemoattractant. A polyethylene terephthalate (PET) membrane, containing 8 μm pores and coated with Matrigel basement membrane matrix, separated the upper and lower portions of the invasion chamber. After 24 h, chambers were removed and the cells that had not invaded were removed from within the chamber using a cotton swab. The cells that had invaded through and adhered to the bottom of the PET membrane separating the chambers were fixed with methanol and stained with 0.5% crystal violet (Sigma-Aldrich, St. Louis, MO, USA). Five random images were taken of the bottom of each membrane using a Cytation 5 Cell Imaging Multi-Mode Reader (Winooski, VT, USA). The cells in each image were counted using Image J (NIH, Bethesda, MD, USA).
To correct for the inhibitory effects of the Amaryllidaceae alkaloids on cell proliferation, cells from the same biological repeat were seeded in parallel in 24-well tissue culture plates at a density of 1 × 10^5 cells/well in DMEM containing 5% FBS (the average of the FBS concentrations in the upper and lower chambers) and supplemented with vehicle or increasing concentrations of the alkaloids. These wells were not coated with Matrigel. The medium was removed, and the adherent cells were trypsinized and counted 24 h after treatment using a hemocytometer. To compare cell invasion across treatments, cell invasion was corrected for adherent cell proliferation and expressed as % vehicle control.

MMP-1, -2, -7, -9, -13 = assay: Luminex assay of MMP secretion in HCT-116 and LoVo cell supernatants; type: cell-based, human; conditions: 24 h, both cell lines (HCT-116, LoVo)
Excerpt: (§5) We ordered a customized Luminex® assay to quantify 15 targets at once from Biotechne (reference LXSAHM-15; R&D Systems, Abingdon, U.K.). The 15 targets were chosen on the basis of the literature as follows: the relevant metalloproteinases MMP-1, -2, -7, -9, -13 [49] and the cytokines associated with dismal prognosis or shorter disease-free survival period: C-C motif chemokine ligand (CCL) -4, CCL-22, Flt-3 ligand, IL-1β, IL-2, IL-6, IL-8, interferon gamma (IFNγ), vascular endothelial growth factor (VEGF), and pentraxin-3 [50]. Samples were prepared as follows: HCT-116 or LoVo cells were seeded in 6-well plates and allowed to adhere and grow until they reached 70% confluency. The culture medium was replaced by 1.5 mL of culture medium containing only 0.5% of FBS with or without the compounds to be tested (NAR at 80 nM, LYC at 6 µM, and HAE at 6 µM). After 24 h of treatment, supernatants were collected, aliquoted, and kept frozen at −80 °C. Three independent series of samples were prepared. […] We thus decided to concentrate several aliquots of our supernatant samples by centrifugation of 500 µL of supernatant with Amicon Ultra 0.5 mL filters characterized by a 3 kDa cut-off (UFC500324; Millipore, Merck, Hoeilaart, Belgium) leading to a final volume of 150 µL (3.3 times concentrated). The Luminex® assay was conducted according to manufacturer’s recommendations. Data were collected on a Bioplex-200 (Bio-Rad, Temse, Belgium).

VEGF = assay: Luminex assay of VEGF in HCT-116 and LoVo cell supernatants; type: cell-based, human; conditions: 24 h, both cell lines
Excerpt: as §5, with “Data were collected on a Bioplex-200 (Bio-Rad, Temse, Belgium).” left out

IL-8 = assay: Luminex assay of IL-8 in HCT-116 and LoVo cell supernatants; type: cell-based, human; conditions: 24 h
Excerpt: as §5, with “Data were collected on a Bioplex-200 (Bio-Rad, Temse, Belgium).” left out

LoVo cells [7] = assay: Invasion assay, Matrigel-coated Boyden chambers, LoVo; type: cell-based, human; conditions: 6 µM, 24 h, corrected for adherent cells
[8] = mean over five cancer cell lines, MTT, 72 h, read-out: Mean IC50 Cancer Cells
[9] = Homo sapiens, HCT-116, 72 h of exposure
[10] = Homo sapiens, HT-29, 72 h of exposure
[11] = Homo sapiens, DLD-1, 72 h of exposure
[12] = Homo sapiens, mean over five cancer cell lines, MTT, 72 h, read-out: Mean IC50 Cancer Cells
[13] = Homo sapiens, after 72 h of exposure, regardless of TP53 status, read-out: IC50s against all cancer cell lines

| SMILES | IC50 (CoN) [nM] | IC50 (LoVo) [nM] | IC50 (HCT-116^+/+; 72 h of exposure) [nM] | IC50 (HCT-116^-/-; 72 h of exposure) [nM] | IC50 (HT-29; 72 h of exposure) [nM] | IC50 (DLD-1; 72 h of exposure) [nM] | Ratio N/C [1] | IC50 [1, 8] [nM] | IC50 (CoN; Homo sapiens, Epithelial cell) [nM] | IC50 (LoVo; Homo sapiens, LoVo) [nM] | IC50 (HCT-116^+/+; [9]) [nM] | IC50 (HCT-116^-/-; [9]) [nM] | IC50 (HT-29; [10]) [nM] | IC50 (DLD-1; [11]) [nM] | IC50 [1, 12] [nM] | GI50 [2] [nM] | IC50 [1, 13] [nM] | secretion of MMP-1, -2, and -7 (MMP-1, -2, -7, -9, -13; 6 µM) | further results |
| --- | --- | --- | --- | --- | --- | --- | --- | --- | --- | --- | --- | --- | --- | --- | --- | --- | --- | --- | --- |
| N.N.[Cl][Pt][Cl] [Cisplatin, cisplatin, reference compound] | 67000 | 8400 | 4500 | 17500 | 22100 | 14800 | 5 | 13500 | – | – | – | – | – | – | – | – | – | – | times less toxic toward non-cancerous cells ([1]; mean IC50s of cancer cell lines vs CoN cell line): 5 times |
| O=C1N[C@H]2[C@H](O)[C@H](O)[C@@H](O)[C@H](O)[C@@H]2c2cc3c(c(O)c21)OCO3 [PANC, pancratistatin] | – | – | – | – | – | – | 8 | – | 2400 | 590 | 170 | 160 | 300 | 280 | 300 | 263 | – | – | IC50 [3]: 100 nM |
| O=C1N[C@@H]2C(=C[C@H](O)[C@@H](O)[C@H]2O)c2cc3c(c(O)c21)OCO3 [NAR, narciclasine] | 1100 | 52 | 23 | 29 | 32 | 30 | 32 | 33 | – | – | – | – | – | – | – | 45.7 | – | – | times more potent than PANC ([1]; MTT IC50 comparison NAR vs PANC): 10 times; inhibition of cell adhesion (HCT-116 cells [4]): 39%; maximal inhibition of cell adhesion (LoVo cells [5]): 18%; cell invasion, % of vehicle control (HCT-116 cells [6]; 0.04 µM): 41.1 ± 4.3%; cell invasion, % of vehicle control (HCT-116 cells [6]; 0.08 µM): 13.6 ± 4.8%; secretion of MMP-1, -2, and -7 (MMP-1, -2, -7, -9, -13; 0.08 µM): markedly decrease; VEGF levels, times decreased (VEGF; 0.08 µM): up to 5 times; IL-8 levels (IL-8; HCT-116 cells, NAR 80 nM, in comparison to LYC): opposite effects |
| CO[C@@H]1C=C[C@@]23c4cc5c(cc4CN(C[C@@H]2O)[C@H]3C1)OCO5 [HAE, haemanthamine] | – | – | – | – | – | – | 31 | – | 85000 | 4600 | 1900 | 2200 | 2500 | 2400 | 2700 | 15800 | ~3000 | markedly decrease | – |
| O[C@H]1[C@H]2c3cc4c(cc3CN3CCC(=C[C@@H]1O)[C@H]23)OCO4 [LYC, lycorine] | – | – | – | – | – | – | 24 | – | 79000 | 5500 | 1300 | 2600 | 3900 | 2900 | 3200 | 1990 | ~3000 | markedly decrease | invasion of HCT-116 cells (HCT-116 cells [6]; 1.5 µM, not dose-dependent): reduced; residual invasion rate (LoVo cells [7]): 37.4 ± 7.8%; VEGF levels, times decreased (VEGF; 6 µM): ≤ 10 times; IL-8 secretion (IL-8; LYC 6 µM, both cellular models): reduced |
